According to patent US20260355112A1, “HIGH-STABILITY LIPOSOME, PREPARATION METHOD THEREFOR, AND USE THEREOF” (SIRIO HEALTHCARE (ANHUI) CO., LTD., priority 2022, published 2026):

Assays:
[1] = Microscopic observation (polarizing microscope); assay type: physicochemical; conditions: under the microscope
Excerpt: The test sample was taken on a glass slide, spread homogeneously, and covered with a cover glass to prepare a temporary mounting slide.
A transflective polarizing microscope (VPV-900) was used. The specific procedures were as follows: adjust the brightness, fix the temporary mounting slide on the stage, align the light aperture with a low-power objective lens, and adjust the coarse focus screw until the field of view is clear. If the clarity is insufficient, use the fine focus screw for further adjustment or switch to a high-power objective lens for observation.
Bright spots can be observed in the middle of the sample in the field of view, which were crystalline structures.

[2] = background statement; cited from earlier work

- Microscopic structure ([1]; listed as coenzyme Q10 raw material): irregular crystalline structures
- Microscopic structure ([1]; listed as raw material of coenzyme Q10): irregular crystal structure
SMILES: COC1=C(OC)C(=O)C(C/C=C(\C)CC/C=C(\C)CC/C=C(\C)CC/C=C(\C)CC/C=C(\C)CC/C=C(\C)CC/C=C(\C)CC/C=C(\C)CC/C=C(\C)CCC=C(C)C)=C(C)C1=O [Coenzyme Q10, coenzyme Q10]
- Antioxidant capacity relative to vitamin E [2]: 50 times
